Test results taken from ChEMBL document CHEMBL1201862, “PubChem BioAssay data set” (2004).
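All cell lines were grown in 96-well plates and treated with compound for 48 hours. GI50: concentration for 50% inhibition of growth.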 Active and inactive are the calls of the source. Cut-off read from the data, not from the text of the source: active = GI50 up to about 1.1 µM and inactive = higher.

Tests used:
Experiment in all cases: NCI anticancer screen, dose series, 48 h
SK-MEL-2 = test system: SK-MEL-2
MOLT-4 = test system: MOLT-4
UACC-257 = test system: UACC-257
786-0 = test system: 786-0
HOP-92 = test system: HOP-92
NCI-H460 = test system: NCI-H460
SF-268 = test system: SF-268
HT-29 = test system: HT-29
NCI-H226 = test system: NCI-H226
OVCAR-5 = test system: OVCAR-5
A549 = test system: A549
U-251 = test system: U-251
SNB-75 = test system: SNB-75
SN12C = test system: SN12C
DU-145 = test system: DU-145
ACHN = test system: ACHN
OVCAR-4 = test system: OVCAR-4
KM12 = test system: KM12
M14 = test system: M14
PC-3 = test system: PC-3

S=C1Cc2cc3ccccc3nc2-c2ccccc2N1
GI50 (SK-MEL-2): 36.7 µM (inactive) | GI50 (MOLT-4): > 96.8 µM (inactive) | GI50 (UACC-257): 29.1 µM (inactive) | GI50 (786-0): 12.6 µM (inactive) | GI50 (HOP-92): 8.87 µM (inactive) | GI50 (NCI-H460): 15.1 µM (inactive) | GI50 (SF-268): 7.01 µM (inactive) | GI50 (HT-29): > 47.2 µM (inactive) | GI50 (NCI-H226): 16.1 µM (inactive) | GI50 (OVCAR-5): 51.2 µM (inactive) | GI50 (A549): 26.1 µM (inactive) | GI50 (U-251): 13.7 µM (inactive) | GI50 (SNB-75): 7.24 µM (inactive) | GI50 (SN12C): 16.7 µM (inactive) | GI50 (DU-145): 70.8 µM (inactive) | GI50 (ACHN): 24 µM (inactive) | GI50 (OVCAR-4): 12.4 µM (inactive) | GI50 (KM12): 19.3 µM (inactive) | GI50 (M14): 26.7 µM (inactive) | GI50 (PC-3): 36 µM (inactive)

CCCCON1C[C@@H](O)C(O)[C@@H](O)C1 (stereo not given in full)
GI50 (SK-MEL-2): > 100 µM (inactive) | GI50 (MOLT-4): > 100 µM (inactive) | GI50 (UACC-257): > 100 µM (inactive) | GI50 (786-0): > 100 µM (inactive) | GI50 (HOP-92): > 100 µM (inactive) | GI50 (NCI-H460): > 100 µM (inactive) | GI50 (SF-268): > 100 µM (inactive) | GI50 (HT-29): > 100 µM (inactive) | GI50 (NCI-H226): > 100 µM (inactive) | GI50 (OVCAR-5): > 100 µM (inactive) | GI50 (A549): > 100 µM (inactive) | GI50 (U-251): > 100 µM (inactive) | GI50 (SNB-75): > 100 µM (inactive) | GI50 (SN12C): > 100 µM (inactive) | GI50 (DU-145): > 100 µM (inactive) | GI50 (ACHN): > 100 µM (inactive) | GI50 (OVCAR-4): > 100 µM (inactive) | GI50 (KM12): > 100 µM (inactive) | GI50 (M14): > 100 µM (inactive) | GI50 (PC-3): > 100 µM (inactive)

COc1cc(N(C)C)c(OC)cc1/C=C\c1ccnc2ccccc12
GI50 (SK-MEL-2): 2.66 µM (inactive) | GI50 (MOLT-4): 3.4 µM (inactive) | GI50 (UACC-257): 3.73 µM (inactive) | GI50 (786-0): 4.49 µM (inactive) | GI50 (HOP-92): 2.74 µM (inactive) | GI50 (NCI-H460): 2.96 µM (inactive) | GI50 (SF-268): 3.63 µM (inactive) | GI50 (HT-29): 3.1 µM (inactive) | GI50 (NCI-H226): 8.83 µM (inactive) | GI50 (OVCAR-5): > 10 µM (inactive) | GI50 (A549): 7.11 µM (inactive) | GI50 (U-251): 5.04 µM (inactive) | GI50 (SNB-75): 2.57 µM (inactive) | GI50 (SN12C): 6.32 µM (inactive) | GI50 (DU-145): 3.46 µM (inactive) | GI50 (ACHN): 6.12 µM (inactive) | GI50 (OVCAR-4): > 10 µM (inactive) | GI50 (KM12): 0.46 µM (active) | GI50 (M14): 4.93 µM (inactive) | GI50 (PC-3): 2.92 µM (inactive)

CCOC1=C/C(=N\Nc2ccc([N+](=O)[O-])cc2)CCC1
GI50 (SK-MEL-2): 21.5 µM (inactive) | GI50 (MOLT-4): 4.83 µM (inactive) | GI50 (UACC-257): 63.8 µM (inactive) | GI50 (786-0): 32.4 µM (inactive) | GI50 (HOP-92): 39.8 µM (inactive) | GI50 (NCI-H460): 25.4 µM (inactive) | GI50 (SF-268): 11.3 µM (inactive) | GI50 (HT-29): 14.6 µM (inactive) | GI50 (NCI-H226): 41.9 µM (inactive) | GI50 (OVCAR-5): 42.4 µM (inactive) | GI50 (A549): 71.6 µM (inactive) | GI50 (U-251): 19.3 µM (inactive) | GI50 (SNB-75): 26.4 µM (inactive) | GI50 (SN12C): 29.9 µM (inactive) | GI50 (DU-145): > 100 µM (inactive) | GI50 (ACHN): 12.3 µM (inactive) | GI50 (OVCAR-4): 13.8 µM (inactive) | GI50 (KM12): 14.3 µM (inactive) | GI50 (M14): 49.4 µM (inactive) | GI50 (PC-3): 53.6 µM (inactive)

Cc1cc(=O)n2nc(CN3CCCCC3)sc2n1
GI50 (SK-MEL-2): > 100 µM (inactive) | GI50 (MOLT-4): > 100 µM (inactive) | GI50 (UACC-257): > 100 µM (inactive) | GI50 (786-0): > 100 µM (inactive) | GI50 (HOP-92): > 100 µM (inactive) | GI50 (NCI-H460): > 100 µM (inactive) | GI50 (SF-268): > 100 µM (inactive) | GI50 (HT-29): > 100 µM (inactive) | GI50 (NCI-H226): > 100 µM (inactive) | GI50 (OVCAR-5): > 100 µM (inactive) | GI50 (A549): > 100 µM (inactive) | GI50 (U-251): > 100 µM (inactive) | GI50 (SNB-75): 54.5 µM (inactive) | GI50 (SN12C): > 100 µM (inactive) | GI50 (DU-145): > 100 µM (inactive) | GI50 (ACHN): > 100 µM (inactive) | GI50 (OVCAR-4): > 100 µM (inactive) | GI50 (KM12): > 100 µM (inactive) | GI50 (M14): > 100 µM (inactive) | GI50 (PC-3): > 100 µM (inactive)

Nc1nc(N)c(/N=N/c2ccc(C(=O)O)c(O)c2)c(N)n1
GI50 (SK-MEL-2): > 100 µM (inactive) | GI50 (MOLT-4): > 100 µM (inactive) | GI50 (UACC-257): > 100 µM (inactive) | GI50 (786-0): > 100 µM (inactive) | GI50 (HOP-92): 92.5 µM (inactive) | GI50 (NCI-H460): > 100 µM (inactive) | GI50 (SF-268): > 100 µM (inactive) | GI50 (HT-29): > 100 µM (inactive) | GI50 (NCI-H226): > 100 µM (inactive) | GI50 (OVCAR-5): > 100 µM (inactive) | GI50 (A549): > 100 µM (inactive) | GI50 (U-251): > 100 µM (inactive) | GI50 (SNB-75): > 100 µM (inactive) | GI50 (SN12C): > 100 µM (inactive) | GI50 (DU-145): > 100 µM (inactive) | GI50 (ACHN): > 100 µM (inactive) | GI50 (OVCAR-4): 18.5 µM (inactive) | GI50 (KM12): > 100 µM (inactive) | GI50 (M14): > 100 µM (inactive) | GI50 (PC-3): > 100 µM (inactive)

O=C(Sc1c(-c2ccccc2)c(=O)n(-c2ccccc2)c(=S)n1-c1ccccc1)c1ccco1
GI50 (SK-MEL-2): > 100 µM (inactive) | GI50 (MOLT-4): 27.5 µM (inactive) | GI50 (UACC-257): > 31.6 µM (inactive) | GI50 (786-0): > 100 µM (inactive) | GI50 (HOP-92): > 52.2 µM (inactive) | GI50 (NCI-H460): > 100 µM (inactive) | GI50 (SF-268): > 100 µM (inactive) | GI50 (HT-29): > 100 µM (inactive) | GI50 (NCI-H226): > 100 µM (inactive) | GI50 (OVCAR-5): > 100 µM (inactive) | GI50 (A549): > 100 µM (inactive) | GI50 (U-251): > 100 µM (inactive) | GI50 (SNB-75): 72.1 µM (inactive) | GI50 (SN12C): > 100 µM (inactive) | GI50 (DU-145): > 100 µM (inactive) | GI50 (ACHN): > 100 µM (inactive) | GI50 (OVCAR-4): > 100 µM (inactive) | GI50 (KM12): > 100 µM (inactive) | GI50 (M14): > 100 µM (inactive) | GI50 (PC-3): > 100 µM (inactive)
